Measured values reported in PubChem BioAssay AID330 (DTP/NCI, 2004).
“And” between values parts separate entries of the source, which are not always exact repeats. Equal entries are not always repeated. Toxic doses and inconclusive results are not listed.

Test system: P388 leukemia ip, CD2F1 mice, survival T/C
Assay: NCI In Vivo Anticancer Drug Screen. Data for tumor model P388 Leukemia (intraperitoneal) in CD2F1 (CDF1) mice
Settings: endpoint: median survival time, higher = longer survival
Procedure, shortened: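 Mice carrying the transplanted tumor received test compound or vehicle. Survival was recorded in each group, and the value is the treated-group measurement divided by that of the vehicle-treated control group.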

[1] = dose: 12.5 mg/kg/injection, schedule: Q01DX009 (ip), vehicle: saline with Tween-80
[2] = dose: 25.0 mg/kg/injection, schedule: Q01DX009 (ip), vehicle: saline with Tween-80
[3] = dose: 50.0 mg/kg/injection, schedule: Q01DX009 (ip), vehicle: saline with Tween-80
[4] = dose: 100.0 mg/kg/injection, schedule: Q01DX009 (ip), vehicle: saline with Tween-80
[5] = dose: 200.0 mg/kg/injection, schedule: Q01DX009 (ip), vehicle: saline with Tween-80
[6] = dose: 50.0 mg/kg/injection, schedule: Q01DX005 (ip), vehicle: saline with Tween-80
[7] = dose: 100.0 mg/kg/injection, schedule: Q01DX005 (ip), vehicle: saline with Tween-80
[8] = dose: 200.0 mg/kg/injection, schedule: Q01DX005 (ip), vehicle: saline with Tween-80
[9] = dose: 60.0 mg/kg/injection, schedule: Q01DX005 (ip), vehicle: saline with Tween-80
[10] = dose: 120.0 mg/kg/injection, schedule: Q01DX005 (ip), vehicle: saline with Tween-80
[11] = dose: 240.0 mg/kg/injection, schedule: Q01DX005 (ip), vehicle: saline with Tween-80
[12] = dose: 50.0 mg/kg/injection, schedule: Q01DX009 (ip), vehicle: saline
[13] = dose: 100.0 mg/kg/injection, schedule: Q01DX009 (ip), vehicle: saline
[14] = dose: 200.0 mg/kg/injection, schedule: Q01DX009 (ip), vehicle: saline

C/C(=C\c1cc2cc(C(=N)N)ccc2o1)c1cc2cc(C(=N)N)ccc2o1
T/C (dose: 400.0 mg/kg/injection, schedule: Q04DX002 (ip), vehicle: saline): 159 % of control

Cc1cnc(N)c(C(=O)O)n1
T/C (dose: 50.0 mg/kg/injection, schedule: Q01DX005 (ip), vehicle: Klucel (hydroxypropylcellulose) (HPC)): 102 % of control | T/C (dose: 100.0 mg/kg/injection, schedule: Q01DX005 (ip), vehicle: Klucel (hydroxypropylcellulose) (HPC)): 90 % of control

c1ccc(-c2csnn2)cc1
T/C (dose: 25.0 mg/kg/injection, schedule: Q04DX003 (ip), vehicle: saline with Tween-80): 99 % of control | T/C (dose: 50.0 mg/kg/injection, schedule: Q04DX003 (ip), vehicle: saline with Tween-80): 100 % of control | T/C (dose: 100.0 mg/kg/injection, schedule: Q04DX003 (ip), vehicle: saline with Tween-80): 99 % of control | T/C (dose: 200.0 mg/kg/injection, schedule: Q04DX003 (ip), vehicle: saline with Tween-80): 106 % of control

Cc1ccc(C#N)s1
T/C (dose: 3.12 mg/kg/injection, schedule: Q01DX009 (ip), vehicle: saline with Tween-80): 104 % of control | T/C (dose: 6.25 mg/kg/injection, schedule: Q01DX009 (ip), vehicle: saline with Tween-80): 103 % of control | T/C [1]: 102 % of control | T/C [2]: 95 % of control

Cc1ccn(C)n1
T/C (dose: 60.0 mg/kg/injection, schedule: Q01DX005 (ip), vehicle: saline): 96 % of control | T/C (dose: 120.0 mg/kg/injection, schedule: Q01DX005 (ip), vehicle: saline): 93 % of control | T/C (dose: 240.0 mg/kg/injection, schedule: Q01DX005 (ip), vehicle: saline): 100 % of control

O=C(NC(Cc1cnc[nH]1)C(=O)O)c1ccccc1 (stereo unspecified)
T/C [3]: 92 % of control | T/C [4]: 98 % of control | T/C [5]: 98 % of control

O=NNc1nc2c(Cl)cccc2s1
T/C (dose: 1.56 mg/kg/injection, schedule: Q01DX009 (ip), vehicle: water): 102 % of control | T/C (dose: 3.12 mg/kg/injection, schedule: Q01DX009 (ip), vehicle: water): 101 % of control | T/C (dose: 3.15 mg/kg/injection, schedule: Q01DX009 (ip), vehicle: water): 102 % of control | T/C (dose: 6.25 mg/kg/injection, schedule: Q01DX009 (ip), vehicle: water): 99 % of control and 100 % of control | T/C (dose: 12.5 mg/kg/injection, schedule: Q01DX009 (ip), vehicle: water): 99 % of control and 114 % of control | T/C (dose: 25.0 mg/kg/injection, schedule: Q01DX009 (ip), vehicle: water): 100 % of control and 111 % of control | T/C (dose: 50.0 mg/kg/injection, schedule: Q01DX009 (ip), vehicle: water): 106 % of control

Cc1ccc(C2SCC(=O)N2CCN2C(=O)CSC2c2ccc(C)s2)s1 (stereo unspecified)
T/C [6]: 101 % of control | T/C [7]: 109 % of control | T/C [8]: 100 % of control

Cc1cc(N(c2ccc([N+](=O)[O-])cc2)S(C)(=O)=O)c(C)cc1C=O
T/C [2]: 101 % of control | T/C [3]: 99 % of control | T/C [4]: 98 % of control

C/C(=C\C(=O)c1ccccc1)Nc1noc(-c2ccccc2)n1
T/C [9]: 97 % of control | T/C [10]: 94 % of control | T/C [11]: 96 % of control

C1#CCCCCCC#CCCCC1
T/C (dose: 20.0 mg/kg/injection, schedule: Q01DX009 (ip), vehicle: saline with Tween-80): 109 % of control | T/C (dose: 30.0 mg/kg/injection, schedule: Q01DX009 (ip), vehicle: saline with Tween-80): 104 % of control | T/C (dose: 44.0 mg/kg/injection, schedule: Q01DX009 (ip), vehicle: saline with Tween-80): 100 % of control | T/C (dose: 66.0 mg/kg/injection, schedule: Q01DX009 (ip), vehicle: saline with Tween-80): 104 % of control | T/C [4]: 104 % of control | T/C (dose: 150.0 mg/kg/injection, schedule: Q01DX009 (ip), vehicle: saline with Tween-80): 109 % of control

Cc1c2cc[n+](CCO)cc2c(C)c2c1[nH]c1ccc(O)cc12
T/C (dose: 0.79 mg/kg/injection, schedule: Q04DX003 (ip), vehicle: saline): 155 % of control | T/C (dose: 1.56 mg/kg/injection, schedule: Q04DX003 (ip), vehicle: saline): 165 % of control | T/C (dose: 3.12 mg/kg/injection, schedule: Q04DX003 (ip), vehicle: saline): 165 % of control | T/C (dose: 6.25 mg/kg/injection, schedule: Q04DX003 (ip), vehicle: saline): 155 % of control | T/C (dose: 12.5 mg/kg/injection, schedule: Q04DX003 (ip), vehicle: saline): 100 % of control | T/C (dose: 25.0 mg/kg/injection, schedule: Q04DX003 (ip), vehicle: saline): 92 % of control

Cn1c(=O)c2c(=S)sc(=S)[nH]c2n(C)c1=O
T/C (dose: 25.0 mg/kg/injection, schedule: Q04DX002 (ip), vehicle: saline with Tween-80): 106 % of control | T/C (dose: 50.0 mg/kg/injection, schedule: Q04DX002 (ip), vehicle: saline with Tween-80): 106 % of control | T/C (dose: 100.0 mg/kg/injection, schedule: Q04DX002 (ip), vehicle: saline with Tween-80): 106 % of control

CCN(CC)CCC(=O)c1ccccc1
T/C [1]: 102 % of control and 89 % of control | T/C [2]: 108 % of control | T/C (dose: 25.0 mg/kg/injection, schedule: Q01DX009 (ip), vehicle: saline): 97 % of control | T/C [3]: 109 % of control and 91 % of control | T/C [12]: 96 % of control | T/C [4]: 123 % of control

CCOC(=Nc1ccc(F)cc1)SC(c1ccccc1)(c1ccccc1)c1ccccc1
T/C [6]: 110 % of control | T/C [7]: 104 % of control | T/C [8]: 99 % of control

CCOP(=O)(Nc1ccc(OC)cc1)OCC
T/C [12]: 103 % of control | T/C [13]: 108 % of control | T/C [14]: 111 % of control

CC(C)NCCCNC(=O)C1COc2ccccc2O1 (stereo unspecified)
T/C (dose: 50.0 mg/kg/injection, schedule: Q01DX005 (ip), vehicle: saline): 94 % of control | T/C (dose: 100.0 mg/kg/injection, schedule: Q01DX005 (ip), vehicle: saline): 88 % of control | T/C (dose: 200.0 mg/kg/injection, schedule: Q01DX005 (ip), vehicle: saline): 90 % of control

CCCCN(CCCC)Cc1c(C)[nH]c2ccc(N(C)C)cc2c1=O
T/C (dose: 50.0 mg/kg/injection, schedule: Q01DX009 (ip), vehicle: suspension in saline): 108 % of control | T/C (dose: 100.0 mg/kg/injection, schedule: Q01DX009 (ip), vehicle: suspension in saline): 103 % of control

COc1ccc2c(CP(=O)(O)O)cc(=O)oc2c1
T/C (dose: 100.0 mg/kg/injection, schedule: Q01DX001 (ip), vehicle: suspension in saline): 99 % of control | T/C (dose: 200.0 mg/kg/injection, schedule: Q01DX001 (ip), vehicle: suspension in saline): 100 % of control | T/C (dose: 400.0 mg/kg/injection, schedule: Q01DX001 (ip), vehicle: suspension in saline): 87 % of control

C/C(=N\O)c1ccc2ccccc2c1
T/C [12]: 101 % of control | T/C [13]: 113 % of control | T/C [14]: 102 % of control

O=c1nnc(O)c2n(O)cccc1-2
T/C [9]: 100 % of control | T/C [10]: 105 % of control | T/C [11]: 97 % of control

Cc1ccc2nc(N/N=C(\c3ccccc3)c3ccccn3)cc(C)c2c1
T/C [6]: 100 % of control | T/C [7]: 112 % of control

O=C(/N=C1\N=Nc2nc(CC(=O)c3cccc4ccccc34)c(O)n21)Nc1ccc(Cl)cc1
T/C [6]: 96 % of control | T/C [7]: 103 % of control | T/C [8]: 104 % of control

Nc1ccc2c(c1)C(=O)CCC2
T/C [3]: 103 % of control | T/C [4]: 99 % of control | T/C [5]: 100 % of control

O=C(O)/C=N/NS(=O)(=O)c1ccc2ccccc2c1
T/C (dose: 50.0 mg/kg/injection, schedule: Q01DX009 (ip), vehicle: other): 161 % of control and 164 % of control | T/C (dose: 200.0 mg/kg/injection, schedule: Q01DX009 (ip), vehicle: other): 153 % of control

S=C(N/N=C\c1nc2ccccc2c2ccccc12)Nc1ccccc1
T/C (dose: 100.0 mg/kg/injection, schedule: Q04DX002 (ip), vehicle: Klucel (hydroxypropylcellulose) (HPC)): 99 % of control | T/C (dose: 200.0 mg/kg/injection, schedule: Q04DX002 (ip), vehicle: Klucel (hydroxypropylcellulose) (HPC)): 94 % of control | T/C (dose: 400.0 mg/kg/injection, schedule: Q04DX002 (ip), vehicle: Klucel (hydroxypropylcellulose) (HPC)): 93 % of control

C=C1C=CN(C(C)=O)C(OC(C)=O)C1SC(C)(C)C (stereo unspecified)
T/C [9]: 97 % of control | T/C [10]: 95 % of control | T/C [11]: 97 % of control

N#Cc1c2ccc(N)cc2nc2cc(N)ccc12
T/C (dose: 60.0 mg/kg/injection, schedule: Q01DX005 (ip), vehicle: Klucel (hydroxypropylcellulose) (HPC)): 100 % of control | T/C (dose: 120.0 mg/kg/injection, schedule: Q01DX005 (ip), vehicle: Klucel (hydroxypropylcellulose) (HPC)): 105 % of control | T/C (dose: 240.0 mg/kg/injection, schedule: Q01DX005 (ip), vehicle: Klucel (hydroxypropylcellulose) (HPC)): 118 % of control

CC(C)N(C(=O)c1ncccc1C(=O)c1ccccn1)C(C)C
T/C [6]: 105 % of control | T/C [7]: 94 % of control | T/C [8]: 94 % of control
